How the values were obtained:
[1] = type: physicochemical
Description: A 2:1 addition compound of the (+)-isomer with L(+)-tartaric acid was prepared in the following manner: 4 g of the (+)-isomer as base were dissolved in 100 ml of diethyl ether and extracted into 100 ml of water containing 0.8 g of L(+)-tartaric acid by stirring. The organic phase was separated and discarded. The water-phase was freeze-dried in vacuo (<0.1 mm Hg) for 18 hours leaving 3.8 g of a white powder of the title compound.

[2] = system: effect of 5-HTP (5-HT syndrome); assay: 5-HTP-potentiation (5-HT syndrome in mice); type: in vivo; settings: 5-HTP 100 mg/kg i.v. 30 minutes after test substance, log-probit analysis
Description: The test evaluates the ability of the substance to potentiate the effect of 5-HTP, which results in development of 5-HT syndrome (Christensen, Fjalland, Pedersen, Danneskiold-Samsoe and Svendsen; European J. Pharmacol. 41, 153-162, 1977).
Each treatment group consists of 3 mice, and two groups are treated with the highest test dose. A control group only treated with 5-HTP is included and a group treated with citalopram 10 mg/kg and 5-HTP is used as reference for full 5-HT syndrome.
30 minutes after the administration of the test substance, the other groups are given 5-HTP (100 mg/kg) i.v. (injection time 5-10 sec.). After this 5-HTP dose normal, untreated mice remain unaffected, but if the animals have been pretreated with a substance, which inhibits the uptake of 5-HT or a 5-HT agonist, a 5-HTP syndrome will occur. The symptoms are the same as previously described: (1) excitation, (2) tremor, and (3) abduction of the hind limbs. The animals are observed for 15 minutes and each animal is given one point for each symptom present. Again the result is stated in fractions: 0/9, 1/9, . . . 9/9, where 0, 1, . . . , 9 are the number of points per group after the dose in question. The ED50 value is calculated by log-probit analysis.

[3] = system: depression in man; settings: racemate, Ref. A. Gravem et al. 1987; cited from earlier work

**Q.** With `CN(C)CCCC1(c2ccc(F)cc2)OCc2cc(C#N)ccc21` (single isomer, unassigned) [2:1 addition compound of the (+)-isomer with L(+)-tartaric acid] as the compound, how does the “stability” value [1] read?
**A.** stable

**Q.** And the “hygroscopicity” value ([1]; freeze-dried white powder)?
**A.** not hygroscopic

**Q.** What does the source list for `CN(C)CCCC1(c2ccc(F)cc2)OCc2cc(C#N)ccc21` (racemic) [(±)-citalopram, 1-(3-dimethylaminopropyl)-1-(4'-fluorophenyl)-1,3-dihydroisobenzofuran-5-carbonitrile, reference compound]?
**A.** ED50 ([2]; Mus musculus, iv, 0.5 h, read-out: 5-HTP pot. ED50): 3.3 µmol/kg; antidepressant efficacy in man [3]: efficient antidepressant compound in man

**Q.** Which “5-HTP pot. ED50” value [2] does the source give for `CN(C)CCCC1(c2ccc(F)cc2)OCc2cc(C#N)ccc21` (single isomer, unassigned; (+)) [(+)-citalopram, (+)-1-(3-Dimethylaminopropyl)-1-(4'-fluorophenyl)-1,3-dihydroisobenzofuran-5-carbonitrile] here?
**A.** 2.0 µmol/kg

**Q.** For `CN(C)CCCC1(c2ccc(F)cc2)OCc2cc(C#N)ccc21` (single isomer, unassigned; (-)) [(-)-citalopram, (-)-1-(3-dimethylaminopropyl)-1-(4'-fluorophenyl)-1,3-dihydroisobenzofuran-5-carbonitrile], which “5-HTP pot. ED50” value [2] is on record?
**A.** 120 µmol/kg
